“And” between values parts separate entries of the source, which are not always exact repeats. Equal values may be shown once.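 Five concentrations, 48 hours, 96-well plates. Definition used: TGI = concentration required for complete inhibition of growth.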
Experiments:
Assay in all cases: NCI anticancer screen, dose series, 48 h
[1] = test system: A498 renal
[2] = test system: HL-60(TB) leukemia
[3] = test system: MCF7 breast
[4] = test system: OVCAR-5 ovarian
[5] = test system: RXF 393 renal
[6] = test system: SK-MEL-2 melanoma
[7] = test system: SK-MEL-5 melanoma
[8] = test system: SW-620 colon
[9] = test system: T-47D breast
[10] = test system: UACC-62 melanoma

Row | SMILES | TGI [1] [µM] | TGI [2] [µM] | TGI [3] [µM] | TGI [4] | TGI [5] [µM] | TGI [6] [µM] | TGI [7] [µM] | TGI [8] | TGI [9] [µM] | TGI [10] [µM]
1 | COc1ccc(C23OCC(Cc4cc(OC)c(OC)cc42)C3CO)cc1OC (stereo not given) | > 100 | > 100 | > 100 | > 100 µM | > 100 | > 100 | > 100 | > 100 µM | > 100 | > 100
2 | COc1ccc(CC[N+]2(C)COc3cc4oc(=O)cc(C)c4cc3C2)cc1OC (stereo not given) | > 100 | > 100 | > 100 | > 100 µM | > 100 | > 100 | > 100 | > 100 µM | > 100 | > 100
3 | CSc1nc[nH]c1C(N)=S | > 100 | > 100 | > 100 | > 100 µM | > 100 | > 100 | > 100 | > 100 µM | > 100 | > 100
4 | CC(C)[C@@H]1NC(=O)[C@@H]2N=C(O[C@H]2C)[C@H](C(C)C)NC(=O)C2N=C1O[C@H]2C | > 100 | > 100 | > 100 | > 100 µM | > 100 | > 100 | > 100 | > 100 µM | > 100 | > 100
5 | COc1ccc(N=Nc2c(N)nn3c(SC)c(C#N)c(N)nc23)cc1 | 28.5 | 6.07 | 7.97 | 34.8 µM | 19.5 | 7.12 | 34.7 | 22.8 µM | 4.3 | 20.4
6 | C=CCNC1=C2C[C@@H](C)C[C@@H](OC)[C@H](OC(=O)CCN(C)C)[C@H](C)/C=C(\C)[C@@H](OC(N)=O)[C@H](OC)/C=C\C=C(/C)C(=O)NC(=CC1=O)C2=O | 21.4 | 11.7 | 14.9 | 25.8 µM | 11.7 | 12.2 | 12.7 | > 51.3 µM | 12.8 | 11.9
7 | Cc1cc(=O)n2nc(CSc3nnc(Sc4cc(O)ccc4O)s3)sc2n1 | > 100 | 54.1 | 30.9 | > 100 µM | > 100 | > 100 | > 100 | 44.5 µM | 73.6 | > 100
8 | COc1cccc(N=NN2CCCC2)c1 | > 100 | > 100 | > 100 | > 100 µM | > 100 | > 100 | > 100 | > 100 µM | > 100 | > 100
9 | COC(=O)c1ccccc1C1CN=NC12Cc1c(C)ccc(C)c1C2=O (stereo not given) | > 100 | > 100 | > 100 | > 100 µM | > 100 | > 100 | > 100 | > 100 µM | > 100 | > 100
10 | COC(=O)[C@@H]1COC(=O)N1 | > 100 | > 100 | > 100 | > 100 µM | > 100 | > 100 | > 100 | > 100 µM | > 100 | > 100
11 | COc1ccc(/C(CC2OC(=O)c3ccccc32)=N\NC(N)=O)cc1 (stereo not given) | > 100 | > 100 | > 100 | > 100 µM | > 100 | > 100 | > 100 | > 100 µM | > 100 | > 100
12 | Cc1ccc(NCCN(C)C)c2c(=O)c3cc(O)ccc3sc12 | 21.9 | 6.07 | 1.59 | 29.6 µM | 4.8 | 35.7 | 9.88 | 5.76 µM | 28.4 | 9.78
13 | Cc1cc(C)nc(NS(=O)(=O)c2ccc(Nc3c4ccccc4nc4ccc(C(=O)Nc5ccc(S(=O)(=O)N=C(N)N)cc5)cc34)cc2)n1 | > 100 | > 100 | 43.9 | > 100 µM | > 100 | > 100 | > 100 | > 100 µM | > 100 | > 100
14 | N#CC(NNC(=O)c1ccccc1O)c1c(O)ccc2ccccc12 (stereo not given) | > 66 | 12.2 | 53.6 | 21.1 µM | 29.9 | 33.3 | 10.4 | > 60.9 µM | 18.7 | 9.32
15 | O=C1c2ccccc2C(=O)c2sc(Nc3cc(Cl)ccc3Cl)nc21 | 41.9 | 4.89 | 3.7 | 45.6 µM | 39.3 | 31.6 | 2.98 | > 22.2 µM | 34.3 | 6.27
16 | CC(C)=CCc1c2c(c(O)c3c(=O)c4c(oc13)-c1ccc(O)cc1OC4C=C(C)C)C=CC(C)(C)O2 (stereo not given) | 34.9 | 31.7 | 28.9 | 35.9 µM | 20.1 | 26.1 | 28.2 | 23.5 µM | 23 | 27.4
17 | CCC(=C/[C@H](C)C/C=C/C(C)=C/[C@@H](C)C(=O)[C@@H](C)[C@H](O)[C@@H](C)CC)/C=C/[C@H]1CC=CC(=O)O1 | < 0.0012 | 0.0126 | 0.0033 | 1.91 µM and 11 µM | < 0.0012 | < 0.0012 | 0.0182 | 2.09 µM and 12.1 µM | 1.88 | 0.00667
18 | CC(NNC(=O)c1ccncc1)c1ccc(Cl)cc1Cl (stereo not given) | > 100 | > 100 | > 100 | > 100 µM | > 100 | > 100 | > 100 | > 100 µM | > 100 | > 100

Reference: PubChem BioAssay (NCI)
